Assay results taken from US7453006B2, “Inositol derivatives for increasing chloride secretion and inhibiting inflammation” (Inologic, Inc., priority 2000, dated 2008).
Entries after “also recorded” stand apart in the source; their conditions may differ.

Legend:
[1] = tested on: T84 cells; assay: Colonic Epithelial Cell Assay (Isc across T84 monolayers, Ussing chambers); type: cell-based, human; settings: for increase in short circuit current (Isc): T84 monolayers in Ussing chambers, differing concentrations (text: colonic and airway epithelial cells); for Isc response to carbachol / Isc response to thapsigargin following carbachol / inhibition of the Isc response to carbachol: 30 min preincubation, T84
Description: Cl^− secretion in colonic epithelial cells was measured as short circuit current (Isc) across T84 monolayers grown to confluence on Snap-wells (Costar) and mounted in Ussing chambers equipped with voltage clamps (Physiologic Instruments, San Diego). Data was acquired and analyzed using AAcquire and Analyze@ software (Physiologic Instruments). T84 cells (passages 18-48) were maintained as described previously in McRoberts, J. A. et al., “Cyclic AMP and Ca^2+-activated K^+ transport pathway in the apical membrane of a human colonic epithelial cell line,” J. Biol. Chem. 260:14163-14172 (1985). After […] of incubation on Snap-wells, monolayers had formed tight junctions and were preincubated with […] Bt2D-myo-Ins(3,4,5,6)P4/AM for 30-min. prior to mounting. An extracellular concentration of 200 uM corresponds to an intracellular concentration of 4 uM (Vajanaphnich, et al., “Long-term uncoupling of chloride secretion from intracellular calcium levels by Ins(3,4,5,6)P4,” Nature 371:711-714 (1994)). […]

[2] = tested on: arachidonic acid-induced inflammation in mouse ears; assay: arachidonic acid-induced inflammation in mouse ears; type: in vivo; settings: for Ear Thickness: 20 nanomoles/ear topical 30 min before arachidonic acid, measured 60 min after arachidonic acid, control 56.5 ± 1.57
Description: Arachidonic Acid (Nu-Chek, Elysian, Minn. 56028); Indomethacin (stock=12.5 mg/mL acetone). Prednisolone (Sigma Chem, P6004) 20 mM dissolved in acetone; Animals: Female Balb/c mice (B&K laboratories) and Swiss-Webster hybrid (B& K Laboratory, Kent, Wash.)
The right ear of each mouse was used for the test compound. Unless otherwise indicated each compound was adjusted to 20 mM by dilution into DMSO or DMSO/5% Pluronic F127 as indicated and 1 or 2 microliters were applied to the test ear. Thirty minutes after each compound was applied, 4 mg arachidonic acid was applied (4 μL/ear; 2 μL/side) to both ears of each mouse. Measurements of edema were taken 60 min after the application of arachidonic acid with microcalipers (Oditest, Scientific Supply and Equipment) unless otherwise indicated. The results are shown in FIG. 15 as millimeters×10^−2 measured at the thickest point of each ear. Control measurements were performed on ears that were only treated with arachidonic acid.
Response to prednisolone (20 μL of 20 mM/ear; 10 μl/side) added 3 hrs prior 20′ to arachidonic acid or indomethacin (5 μg/ear) added 30 min prior to test compounds was determined. The results are shown in Table A, where the anti-inflammatory/inflammatory effects of 20 nanomoles/ear of the indicated compounds were tested as described in Methods. Each plus represents a change from control (arachidonic acid alone) of 2.5 mm×10^−2. Effects were compared with those of Indomethacin (400 nmols/ear).
Acute inflammation: Membrane permeant inositol polyphosphate analogs were administered topically and tested for inhibition of inflammatory symptoms induced by arachidonic acid on the ear of Swiss Webster mice.

[3] = tested on: CF Human Nasal Epithelial (CFHNE) cells; assay: Cystic Fibrosis Human Nasal Epithelial Cell Assay (Isc, Ussing chambers); type: cell-based
Description: CF Human Nasal Epithelial (CFHNE) Cell Isolation and Proliferation
Nasal Polyps were surgically obtained from a CF patient at Children's Hospital (Seattle, Wash.), transported on ice in a sterile container containing a 1:1 mixture of Dulbecco's modification of minimum essential medium Eagle and Ham's F-12 nutrient medium (DMEM/F-12) (Irvine Scientific, Santa Ana, Calif.) supplemented with 100 U/mL penicillin, 0.1 mg/mL streptomycin, 10 mM HEPES, and 2 mM L-glutamine. The tissue samples were aseptically removed from the transport medium and washed (repeated 5 times) by suspending in 40 mL of Joklik's modification of minimum essential medium Eagle (JMEM) at 4° C., and centrifuging at 500 rpm. The supernatant was aspirated and discarded. The tissue was then transferred to JMEM containing 200 U/mL penicillin, 0.2 mg/mL streptomycin, 0.1 mg/mL gentamycin sulfate (Clonetics, San Diego, Calif.), and 0.1 μg/mL amphotericin-B (Clonetics), and 0.1% Protease, washed an additional two times, suspended in […] in a 10 cm tissue culture dish, and incubated at 4° C. for 24 hours. The tissue samples were then gently triturated, the connective tissue aseptically removed, and the remaining cell suspension centrifuged at 1000 rpm. The supernatant was aspirated and the pellet was resuspended in 10 mL proliferation media, consisting of Keratinocyte-Serum Free Medium (KSFM) (Gibco-BRL, Grand Island, N.Y.) containing 5 ng/ml EGF (Gibco), 50 μg/mL BPE (Gibco), 5 μg/mL insulin, 5 μg/mL transferrin, 5 μg/ml sodium selenite, 10 nM 3,3′,5-triiodo-L-thyronine, 200 nM hydrocortisone, 100 U/mL penicillin, 0.1 mg/mL streptomycin, and 2 mM L-glutamine. The cell suspension was transferred to 2.10 cm tissue culture dishes coated with 3 μg/cm^2 rat-tail collagen (Type I) (Becton-Dickinson, Bedford, Mass.), incubated at 37° C. in an humidified atmosphere of 5% CO2 and 95% air. The cells were allowed to grow for 6 days (˜70% confluence) with the media being replaced with fresh media every other day. The cells were then trypsinized using 0.025% trypsin-EDTA for 5 min. The cell suspension was collected, the trypsin deactivated with 10% Fetal Bovine Serum, and centrifuged at 1000 rpm for 5 min. The cells were then counted using an hemocytometer with a yield of 3×10^6 cells per dish. The supernatant was aspirated and the cells were resuspended in KSFM and plated at a density of 10^4 cells/cm^2.
CFHNE Cell Ussing Chamber Preparation
The CFHNE cells were prepared for Ussing Chamber studies using Snapwell permeable supports (0.4 μm pore size) (Corning Costar, Cambridge, Mass.) coated with 3 μg/cm^2 rat-tail collagen (type 1). Cells were plated at 9×10^3 cells/cm^2 in KSFM. After 2 days, an air-liquid interface (ALI) was initiated in DMEM/F-12 containing: 2% Fetal Clone III (Hyclone, Logan, Utah), 2.5 μg/mL insulin, 2.5 μg/mL transferrin, 2.5 μg/mL sodium selenite, 20 nM hydrocortisone, 1.5 μM epinephrine, 50 μg/mL BPE, 1 nM 3,3′,5-triiodo-L-thyronine, 3.3 nM All-trans retinoic acid, 250 nM ethanolamine, 250 nM O-phosporylethanolamine, 100 U/mL penicillin, 0.1 mg/ml streptomycin, and 2 mM L-glutamine. The CFHNE monolayers reached maximal resistance (˜200 Ω/cm^2) 5-7 days after initiation of ALI. All media/reagents, unless otherwise specified, were supplied by Sigma Chemical Co., St. Louis, Mo.

[4] = topical, ear of Swiss Webster mice

`CCCC(=O)O[C@@H]1[C@H](OC(=O)CCC)[C@H](OP(=O)(OCOC(=O)CC)OCOC(=O)CC)[C@@H](OP(=O)(OCOC(=O)CC)OCOC(=O)CC)[C@H](OC(=O)CCC)[C@H]1OP(=O)(OCOC(=O)CC)OCOC(=O)CC` [ent-TMX, 1,2,5-tri-O-butyryl-myo-inositol 3,4,6-trisphosphate hexakis-(proprionoxymethyl) ester] was tested, and the “increase in short circuit current (Isc)” value [1] was “inactive”.
In the case of `CCCC(=O)OC1C(OC(=O)CCC)C(OP(=O)(OCOC(=O)CC)OCOC(=O)CC)C(OP(=O)(OCOC(=O)CC)OCOC(=O)CC)C(OP(=O)(OCOC(=O)CC)OCOC(=O)CC)C1OP(=O)(OCOC(=O)CC)OCOC(=O)CC` [D-2,3-Di-O-butyryl-myo-inositol 1,4,5,6 tetrakisphosphate octakis(propionoxymethyl)ester], the “topical anti-inflammatory effects, values” [2, 4] is reported as 0.25-1.5 μg/animal.
With “2,3,5-tri-O-butyryl-myo-inositol 1,4,6-trisphosphate hexakis(proprionoxymethyl)ester [TMX]” the “prolonged decrease in Isc after ATP (negative component of the ATP effect)” value ([3]; CFHNE monolayers exposed to TMX for 10 min, ATP 10^−4 M) was “attenuated; also recorded: reverse the negative component of the ATP effect on Isc” and the “increase in short circuit current (Isc)” value [1] was “prolonged increase in Isc similar to cyclic AMP”.
In the case of `CCCC(=O)OC12CCCOC1C(OP(=O)(OCOC(C)=O)OCOC(C)=O)C(OP(=O)(OCOC(C)=O)OCOC(C)=O)C(OP(=O)(OCOC(C)=O)OCOC(C)=O)C2OP(=O)(OCOC(C)=O)OCOC(C)=O` (centres unmarked) [Compound G, (4aa, 5a,6b,7a,8b,8aa)-5,6,7,8-tetrakis[[bis(acetoxymethoxy)-phosphoryl]oxy]-4a-butyryloxy-octahydro-chromen], the “Isc response to carbachol” value ([1]; 200 μM) is reported as “did not affect” and the “Isc response to thapsigargin following carbachol” value ([1]; 200 μM) is reported as “reversed the inhibition of thapsigargin induced chloride secretion; also recorded: reverses the carbachol-mediated inhibition of thapsigargin-stimulated increase in Isc”.
With `N=C(N)NC(=O)c1nc(Cl)c(N)nc1N` [Amiloride, amiloride, reference compound] the “decrease in Isc” value ([3]; amiloride 100 μM, apical compartment, in 19 of 23 monolayers) was 1.01 μAmps/cm^2.
In the case of `Nc1ncnc2c1ncn2[C@@H]1O[C@H](COP(=O)(O)OP(=O)(O)OP(=O)(O)O)[C@@H](O)[C@H]1O` [ATP, adenosine triphosphate, reference compound], the “Isc after ATP” value ([3]; ATP 10^−4 M, monolayers pretreated with vehicle) is reported as “transient increase in Isc followed by a prolonged decrease”.
In the case of `CCCC(=O)OC1C(OC(=O)CCC)C(OP(=O)(OCOC(C)=O)OCOC(C)=O)C(OP(=O)(OCOC(C)=O)OCOC(C)=O)C(OP(=O)(OCOC(C)=O)OCOC(C)=O)C1OP(=O)(OCOC(C)=O)OCOC(C)=O` [D-2,3-Di-O-butyryl-myo-inositol 1,4,5,6 tetrakisphosphate octakis(acetoxymethyl)ester, reference compound], the “dose with inhibitory effect comparable in intensity to that of indomethacin (250 μg/animal)” value [2, 4] is reported as 20-30 μg/animal.
In the case of `COCCOCOC12CCCCOC1C(OP(=O)(OCOC(C)=O)OCOC(C)=O)C(OP(=O)(OCOC(C)=O)OCOC(C)=O)C(OP(=O)(OCOC(C)=O)OCOC(C)=O)C2OP(=O)(OCOC(C)=O)OCOC(C)=O` (centres unmarked) [Compound C, (5aa,6a,7b,8a,9b,9aa)-6,7,8,9-tetrakis[[bis(acetoxymethoxy)-phosphoryl]oxy]-5a-[(2′-methoxy)ethoxy]methoxy-decahydro-benzo[b]oxepin], the “Isc response to carbachol” value ([1]; 200 μM) is reported as “reduces the magnitude”, the “inhibition of the Isc response to carbachol” value ([1]; 200 μM) is reported as “approximately 50%” and the “Isc response to carbachol” value ([1]; 400 μM) is reported as “reduces the magnitude”. For the same compound, the “Isc response to thapsigargin following carbachol” value ([1]; 400 μM) was “partially restores the response of the monolayers to thapsigargin”, the “inhibition of the Isc response to carbachol” value ([1]; 400 μM) was “approximately 50%” and the “Ear Thickness” value [2] was 50.0 ± 5.5 mm × 10^−2.
With “2,3,5-tri-O-butyryl-myo-inositol 1,4,6-trisphosphate hexakis-(acetoxymethyl) ester [TMX/AM]” the “Ear Thickness” value [2] was 44.1 ± 2.3 mm × 10^−2.
For `CC(=O)OCOP(=O)(OCOC(C)=O)O[C@@H]1[C@@H](OP(=O)(OCOC(C)=O)OCOC(C)=O)[C@@H]2O[C@H]3CCC[C@@]2(O3)[C@H](OP(=O)(OCOC(C)=O)OCOC(C)=O)[C@H]1OP(=O)(OCOC(C)=O)OCOC(C)=O` [Tri-cyclo, (1S, 2R, 3S, 4R, 5S, 6S, 8R)-2,3,4,5-tetrakis[[bis-(acetoxymethoxy)phosphoryl]oxy]-7,12-dioxa-tricyclo-[6.3.1.0(1,6)]-dodecane], the “Ear Thickness” value [2] was 49.8 ± 2.5 mm × 10^−2.
